Earlier results as cited in patent US7060295B2, “Formulations for the prevention and treatment of insulin resistance and type 2 diabetes mellitus” (ChronoRX LLC, priority 2000, dated 2006).

Key:
[1] = in vivo
[2] = supplementation
sulfonylurea receptor = sulfonylurea receptor (Homo sapiens, UniProt Q09428); settings: β-cell membrane receptors
[3] = in vivo; remark: listed apart in the source
[4] = in vivo; remark: listed apart in the source
[5] = 1 year, 457 non-diabetic patients with android (abdominal) obesity
[6] = system: insulin secreting β-cells
[7] = not given; remark: listed apart in the source
[8] = oral 60 mg twice daily for 8 weeks
pancreatic islets = settings: islets simultaneously exposed to IL-1 beta
[9] = not given; remark: listed apart in the source
[10] = 600 mg/day, used alone, obese type 2 diabetes patients

Sequence of sulfonylurea receptor (Q09428 whole entry): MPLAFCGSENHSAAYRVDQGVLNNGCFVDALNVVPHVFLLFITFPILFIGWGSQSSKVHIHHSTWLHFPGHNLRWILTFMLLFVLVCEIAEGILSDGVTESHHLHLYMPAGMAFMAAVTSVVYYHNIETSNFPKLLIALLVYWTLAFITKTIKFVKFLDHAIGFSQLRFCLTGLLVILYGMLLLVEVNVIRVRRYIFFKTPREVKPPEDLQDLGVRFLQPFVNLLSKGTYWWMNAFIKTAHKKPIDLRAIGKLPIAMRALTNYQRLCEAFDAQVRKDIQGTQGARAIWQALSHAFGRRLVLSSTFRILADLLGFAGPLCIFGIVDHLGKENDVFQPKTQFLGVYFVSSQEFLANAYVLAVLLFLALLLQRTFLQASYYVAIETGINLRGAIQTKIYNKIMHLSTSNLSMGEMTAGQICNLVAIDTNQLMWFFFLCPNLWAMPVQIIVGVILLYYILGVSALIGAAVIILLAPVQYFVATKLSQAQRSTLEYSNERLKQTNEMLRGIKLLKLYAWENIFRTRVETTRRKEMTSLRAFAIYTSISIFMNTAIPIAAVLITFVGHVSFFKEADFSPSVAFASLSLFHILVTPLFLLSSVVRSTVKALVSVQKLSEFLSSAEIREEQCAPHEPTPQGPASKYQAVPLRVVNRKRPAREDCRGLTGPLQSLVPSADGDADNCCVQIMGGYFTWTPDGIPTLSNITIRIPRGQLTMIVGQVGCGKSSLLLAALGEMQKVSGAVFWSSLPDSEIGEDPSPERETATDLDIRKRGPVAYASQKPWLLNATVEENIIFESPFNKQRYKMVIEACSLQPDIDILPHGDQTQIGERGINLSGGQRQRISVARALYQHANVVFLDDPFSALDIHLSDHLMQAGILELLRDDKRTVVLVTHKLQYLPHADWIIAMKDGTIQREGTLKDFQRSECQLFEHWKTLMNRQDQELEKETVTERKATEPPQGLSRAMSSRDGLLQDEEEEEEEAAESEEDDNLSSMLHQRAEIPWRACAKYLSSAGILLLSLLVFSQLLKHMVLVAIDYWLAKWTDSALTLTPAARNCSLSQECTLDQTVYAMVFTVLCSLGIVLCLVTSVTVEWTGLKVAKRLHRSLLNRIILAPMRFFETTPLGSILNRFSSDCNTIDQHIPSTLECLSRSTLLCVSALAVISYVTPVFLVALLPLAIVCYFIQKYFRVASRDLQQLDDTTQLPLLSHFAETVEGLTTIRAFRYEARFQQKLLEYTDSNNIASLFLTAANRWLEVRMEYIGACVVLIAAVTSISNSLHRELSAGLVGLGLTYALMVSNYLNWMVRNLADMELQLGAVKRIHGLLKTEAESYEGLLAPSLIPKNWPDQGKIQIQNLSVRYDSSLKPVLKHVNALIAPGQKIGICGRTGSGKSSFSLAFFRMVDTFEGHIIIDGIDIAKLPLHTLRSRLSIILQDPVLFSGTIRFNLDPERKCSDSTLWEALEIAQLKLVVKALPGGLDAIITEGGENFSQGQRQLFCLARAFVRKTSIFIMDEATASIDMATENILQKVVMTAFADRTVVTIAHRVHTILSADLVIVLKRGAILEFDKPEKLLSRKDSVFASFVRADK
Sequence of sulfonylurea receptor (Q14654 whole entry partner): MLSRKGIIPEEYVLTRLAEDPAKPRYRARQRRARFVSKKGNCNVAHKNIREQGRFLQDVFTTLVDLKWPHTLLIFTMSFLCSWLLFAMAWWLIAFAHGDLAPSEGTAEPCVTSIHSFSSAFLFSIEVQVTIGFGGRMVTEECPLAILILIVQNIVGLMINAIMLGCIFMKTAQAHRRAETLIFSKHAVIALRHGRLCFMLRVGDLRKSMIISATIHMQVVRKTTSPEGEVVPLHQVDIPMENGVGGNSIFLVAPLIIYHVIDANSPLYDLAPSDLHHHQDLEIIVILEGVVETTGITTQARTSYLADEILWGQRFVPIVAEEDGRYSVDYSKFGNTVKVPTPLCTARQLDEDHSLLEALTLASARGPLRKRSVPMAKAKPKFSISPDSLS

CC(=O)c1ccc(S(=O)(=O)NC(=O)NC2CCCCC2)cc1 [Acetohexamide]
Duration of Action [1]: 12 to 18 h

CCCNC(=O)NS(=O)(=O)c1ccc(Cl)cc1 [Chlorpropamide]
Duration of Action [1]: 60 h

[Cr] [Cr, Chromium]
reduction of metformin requirements [2]: more than one-half

CCC1=C(C)CN(C(=O)NCCc2ccc(S(=O)(=O)NC(=O)N[C@H]3CC[C@H](C)CC3)cc2)C1=O [Glimepiride]
Duration of Action [1]: 16 to 24 h

Cc1cnc(C(=O)NCCc2ccc(S(=O)(=O)NC(=O)NC3CCCCC3)cc2)cn1 [Glipizide (XL), Glipizide]
Duration of Action [1]: 24 h

Cc1cnc(C(=O)NCCc2ccc(S(=O)(=O)NC(=O)NC3CCCCC3)cc2)cn1 [Glipizide]
Duration of Action [1]: 12 to 24 h
concentration range that saturates sulfonylurea receptors (sulfonylurea receptor): low nM

COc1ccc(Cl)cc1C(=O)NCCc1ccc(S(=O)(=O)NC(=O)NC2CCCCC2)cc1 [Glyburide]
glycolytic flux and lactate production (perfused rat hearts): dramatic increase

CN(C)C(=N)N=C(N)N [Metformin, metformin]
lactic acidosis, reported frequency [3]: 3 cases per 100,000 patient-years
lactic acidosis, reported incidence [3]: 0.03 /1,000 patient-years exposure
decrease of low-density lipoprotein (LDL) cholesterol levels (monotherapy): 10% to 15%
decrease of plasma triglyceride levels (monotherapy): 10% to 15%
weight loss (patients with type 2 diabetes, first 6 months of treatment): 2 to 3 kg
gastrointestinal side effects (diarrhea, nausea, abdominal pain, metallic taste) [4]: 20% to 30%
weight change [5]: significant weight loss

CCCCNC(=O)NS(=O)(=O)c1ccc(C)cc1 [Tolbutamide]
Duration of Action [1]: 6 to 12 h

O=C1O[C@H]([C@@H](O)CO)C(O)=C1O [ascorbate, ascorbic acid]
decrease of cellular insulin glycation [6]: 66–80%

C[N+](C)(C)CC(O)CC(=O)[O-] (stereo not drawn) [carnitine, beta-hydroxy-gamma-N-trimethylaminobutyric acid]
amount absorbed from the intestine ([7]; oral): 15 to 87 % of ingested carnitine
tissue concentrations relative to plasma ([7]; skeletal and cardiac muscle, active transport): 20- to 50 fold

COC1=C(OC)C(=O)C(C/C=C(\C)CC/C=C(\C)CC/C=C(\C)CC/C=C(\C)CC/C=C(\C)CC/C=C(\C)CC/C=C(\C)CC/C=C(\C)CC/C=C(\C)CCC=C(C)C)=C(C)C1=O [coenzyme Q10, Ubiquinone]
HDL-cholesterol [8]: increased
systolic and diastolic blood pressure, fasting and 2-h plasma insulin, glucose, triglycerides, lipid peroxides, malondialdehyde and diene conjugates [8]: all reduced

NC(=O)c1cccnc1 [nicotinamide]
concentration of maximum effect on recovery of glucose-induced insulin secretion (pancreatic islets): 25 mmol/L

O=S(=O)([O-])[O-].[O]=[V+2] [vanadyl sulfate]
duration of effects after discontinuation ([9]; 100 mg/day for 3 weeks): up to 2 weeks
hepatic and peripheral insulin sensitivity ([9]; 100 mg/day, after 3 weeks): appear to improve

vitamin E
insulin efficiency [10]: further worsen insulin efficiency
